How the values were obtained:
Experiment in all cases: Dundee protein kinase screen
Assay type in all cases: biochemical
ABL = ABL (Homo sapiens, UniProt P00519); details: read-out: %Remaining activity at 1µM NU6300
Method: (§1) Prior to determining its cellular activity, we carried out a screen to assess its selectivity against a panel of 131 protein kinases under conditions that would not distinguish between a reversible or irreversible mode of action. […] These 13 kinases and 29 additional kinases, selected for their known sensitivity to other inhibitors within the purine series, were then tested in a modified screening format in which the assay was repeated following a 4-hr pre-incubation (Table S3B). […] However, conformational flexibility around the active site may promote such an interaction with a residue from another part of the structure ([Martin et al., 2012]).
(§2) Table S3, Related to Figure 4. NCL-0006300 protein kinase selectivity. (A) NU6300 was tested at a single concentration of 1µM against 131 protein kinases present in a Dundee protein kinase screen (Bain et al., 2007). Values given are % activity remaining and are the average of duplicate measurements: 0-25% (red), 26-50% (yellow), 51-80% (black) and above 81% (green). The kinase domain sequences (as defined by UniProt) of […]
(§3) have a lysine residue at a position close to CDK2 Lys88 or Lys89. However, in the structure of tyrosine-protein kinase BTK (PDB ID: 3GEN) the residue equivalent to CDK2 Asp86 is Cys481 and therefore there is the potential for a covalent adduct to be formed through this side chain. […]

CHK2 = CHK2 (Homo sapiens, UniProt O96017); details: CHK2, 1µM; read-out: %Remaining activity at 1µM NU6300
Method: as §1, §2, §3

CSK = CSK (Homo sapiens, UniProt P41240); details: read-out: %Remaining activity at 1µM NU6300
Method: as §1, §2, §3

AMPK = test system: AMPK
Method: as §1, §2, §3

MELK = MELK (Homo sapiens, UniProt Q14680); details: read-out: %Remaining activity at 1µM NU6300
Method: as §1, §2, §3

MARK1 = MARK1 (Homo sapiens, UniProt Q9P0L2); details: MARK1, 1µM; read-out: %Remaining activity at 1µM NU6300
Method: as §1, §2, §3

HIPK3 = HIPK3 (Homo sapiens, UniProt Q9H422); details: HIPK3, 1µM; read-out: %Remaining activity at 1µM NU6300
Method: as §1, §2, §3

LKB1 = LKB1 (Homo sapiens, UniProt Q15831); details: LKB1, 1µM; read-out: %Remaining activity at 1µM NU6300
Method: as §1, §2, §3

MARK4 = biological target: T1, MARK4 (Homo sapiens, UniProt Q96L34); details: MARK4, 1µM; read-out: %Remaining activity at 1µM NU6300
T1 sequence (Q96L34 1-752): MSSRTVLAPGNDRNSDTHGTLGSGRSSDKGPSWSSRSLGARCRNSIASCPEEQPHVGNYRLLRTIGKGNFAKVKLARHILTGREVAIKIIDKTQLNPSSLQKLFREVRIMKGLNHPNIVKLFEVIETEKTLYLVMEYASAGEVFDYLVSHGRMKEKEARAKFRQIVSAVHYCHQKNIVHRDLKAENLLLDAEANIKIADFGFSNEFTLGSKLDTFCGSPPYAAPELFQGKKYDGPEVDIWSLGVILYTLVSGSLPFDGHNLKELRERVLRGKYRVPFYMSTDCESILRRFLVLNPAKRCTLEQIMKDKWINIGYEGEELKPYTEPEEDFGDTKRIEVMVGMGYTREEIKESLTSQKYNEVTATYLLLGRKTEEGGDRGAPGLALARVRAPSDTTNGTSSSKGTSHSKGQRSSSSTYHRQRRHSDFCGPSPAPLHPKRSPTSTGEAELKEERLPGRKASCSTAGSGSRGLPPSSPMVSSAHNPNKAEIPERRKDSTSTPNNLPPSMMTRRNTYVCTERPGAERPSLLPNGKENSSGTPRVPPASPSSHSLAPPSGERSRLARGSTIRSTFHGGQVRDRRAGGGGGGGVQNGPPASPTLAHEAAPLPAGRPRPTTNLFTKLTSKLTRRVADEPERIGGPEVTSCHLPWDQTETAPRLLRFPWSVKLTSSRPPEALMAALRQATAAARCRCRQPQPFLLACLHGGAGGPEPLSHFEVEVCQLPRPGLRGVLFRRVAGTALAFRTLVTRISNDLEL
Method: as §1, §2, §3

JNK3 = JNK3 (Homo sapiens, UniProt P53779); details: JNK3, 1µM; read-out: %Remaining activity at 1µM NU6300
Method: as §1, §2, §3

EPH-A4 = EPH-A4 (Homo sapiens, UniProt P54764); details: EPH-A4, 1µM; read-out: %Remaining activity at 1µM NU6300
Method: as §1, §2, §3

IRR = IRR (Homo sapiens, UniProt P14616); details: read-out: %Remaining activity at 1µM NU6300
Method: as §1, §2, §3

JNK2 = JNK2 (Homo sapiens, UniProt P45984); details: JNK2, 1µM; read-out: %Remaining activity at 1µM NU6300
Method: as §1, §2, §3

ERK2 = ERK2 (Homo sapiens, UniProt P28482); details: ERK2, 1µM; read-out: %Remaining activity at 1µM NU6300
Method: as §1, §2, §3

MLK1 = MLK1 (Homo sapiens, UniProt P80192); details: MLK1, 1µM; read-out: %Remaining activity at 1µM NU6300
Method: as §1, §2, §3

CK1δ = CK1δ (Homo sapiens, UniProt P48730); details: read-out: %Remaining activity at 1µM NU6300
Method: as §1, §2, §3

CAMK1 = CAMK1 (Homo sapiens, UniProt Q14012); details: CAMK1, 1µM; read-out: %Remaining activity at 1µM NU6300
Method: as §1, §2, §3

JNK1 = JNK1 (Homo sapiens, UniProt P45983); details: JNK1, 1µM; read-out: %Remaining activity at 1µM NU6300
Method: as §1, §2, §3

EIF2AK3 = EIF2AK3 (Homo sapiens, UniProt Q9NZJ5); details: EIF2AK3, 1µM; read-out: %Remaining activity at 1µM NU6300
Method: as §1, §2, §3

MKK1 = MKK1 (Homo sapiens, UniProt Q02750); details: MKK1, 1µM; read-out: %Remaining activity at 1µM NU6300
Method: as §1, §2, §3

Chain of LKB1 (Q15831 whole entry): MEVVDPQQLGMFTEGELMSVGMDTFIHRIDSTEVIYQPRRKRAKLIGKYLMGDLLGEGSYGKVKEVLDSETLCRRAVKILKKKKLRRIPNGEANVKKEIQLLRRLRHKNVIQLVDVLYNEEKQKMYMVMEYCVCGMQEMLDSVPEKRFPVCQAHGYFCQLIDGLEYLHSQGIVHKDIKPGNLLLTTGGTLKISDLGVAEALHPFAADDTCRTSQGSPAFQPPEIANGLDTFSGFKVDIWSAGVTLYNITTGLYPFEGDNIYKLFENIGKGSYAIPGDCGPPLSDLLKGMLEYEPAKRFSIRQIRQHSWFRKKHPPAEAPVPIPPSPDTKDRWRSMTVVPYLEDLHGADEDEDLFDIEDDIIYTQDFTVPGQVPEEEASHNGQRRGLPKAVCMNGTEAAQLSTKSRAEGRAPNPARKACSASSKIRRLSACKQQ
Chain of LKB1 (Q7RTN6 whole entry partner): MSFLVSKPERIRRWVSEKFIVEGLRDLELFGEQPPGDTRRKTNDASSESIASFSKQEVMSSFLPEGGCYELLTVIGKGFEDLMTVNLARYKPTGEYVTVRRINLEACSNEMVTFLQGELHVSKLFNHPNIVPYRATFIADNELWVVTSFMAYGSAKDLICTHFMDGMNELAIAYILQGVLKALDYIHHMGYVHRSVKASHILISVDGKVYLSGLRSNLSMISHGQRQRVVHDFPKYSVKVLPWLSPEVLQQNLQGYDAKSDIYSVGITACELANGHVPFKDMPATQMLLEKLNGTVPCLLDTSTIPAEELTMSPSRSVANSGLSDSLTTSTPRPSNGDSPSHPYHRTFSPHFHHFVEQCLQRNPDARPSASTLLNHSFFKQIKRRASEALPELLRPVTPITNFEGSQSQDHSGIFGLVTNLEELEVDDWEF
Chain of LKB1 (Q9Y376 whole entry partner): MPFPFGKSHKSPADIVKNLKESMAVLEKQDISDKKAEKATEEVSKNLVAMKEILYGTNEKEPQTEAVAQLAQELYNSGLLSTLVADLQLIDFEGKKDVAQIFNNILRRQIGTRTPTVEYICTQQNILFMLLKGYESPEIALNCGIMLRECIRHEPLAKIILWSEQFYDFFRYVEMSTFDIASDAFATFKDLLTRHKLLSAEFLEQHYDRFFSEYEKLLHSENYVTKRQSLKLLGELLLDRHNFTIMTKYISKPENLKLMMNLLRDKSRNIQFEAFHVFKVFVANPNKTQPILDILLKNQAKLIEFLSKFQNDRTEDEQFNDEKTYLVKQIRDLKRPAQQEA
Chain of ABL (P00519 whole entry): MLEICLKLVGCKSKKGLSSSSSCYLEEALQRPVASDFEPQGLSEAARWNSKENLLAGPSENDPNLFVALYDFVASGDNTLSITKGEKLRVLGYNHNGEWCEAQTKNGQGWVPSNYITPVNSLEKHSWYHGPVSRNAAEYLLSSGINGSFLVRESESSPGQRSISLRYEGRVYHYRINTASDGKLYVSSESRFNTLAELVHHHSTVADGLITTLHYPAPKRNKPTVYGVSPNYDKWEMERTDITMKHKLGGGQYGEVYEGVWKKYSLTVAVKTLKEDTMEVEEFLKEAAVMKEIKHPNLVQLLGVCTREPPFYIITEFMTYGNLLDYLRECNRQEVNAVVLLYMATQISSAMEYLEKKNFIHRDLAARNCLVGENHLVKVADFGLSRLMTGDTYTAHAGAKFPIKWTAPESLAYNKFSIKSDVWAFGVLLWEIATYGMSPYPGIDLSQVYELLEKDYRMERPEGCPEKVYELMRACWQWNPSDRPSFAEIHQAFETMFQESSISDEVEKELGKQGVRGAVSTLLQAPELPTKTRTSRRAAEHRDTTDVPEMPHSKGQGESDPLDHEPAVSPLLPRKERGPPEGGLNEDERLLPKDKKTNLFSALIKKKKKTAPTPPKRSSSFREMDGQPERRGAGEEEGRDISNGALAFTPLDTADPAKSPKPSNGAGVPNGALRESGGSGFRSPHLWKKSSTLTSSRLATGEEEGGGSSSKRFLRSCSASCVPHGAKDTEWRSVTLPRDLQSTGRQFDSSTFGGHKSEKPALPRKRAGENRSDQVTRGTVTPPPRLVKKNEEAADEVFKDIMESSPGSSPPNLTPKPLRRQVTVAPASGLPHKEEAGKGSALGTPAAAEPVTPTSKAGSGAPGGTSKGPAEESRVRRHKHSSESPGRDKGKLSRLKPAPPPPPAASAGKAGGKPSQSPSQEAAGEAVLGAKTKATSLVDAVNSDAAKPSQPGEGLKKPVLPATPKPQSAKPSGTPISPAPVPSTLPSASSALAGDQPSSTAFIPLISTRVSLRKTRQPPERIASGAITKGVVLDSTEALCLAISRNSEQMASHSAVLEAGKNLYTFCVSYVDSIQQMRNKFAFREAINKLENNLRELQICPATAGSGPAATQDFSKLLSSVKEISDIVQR
Chain of JNK3 (P53779 whole entry): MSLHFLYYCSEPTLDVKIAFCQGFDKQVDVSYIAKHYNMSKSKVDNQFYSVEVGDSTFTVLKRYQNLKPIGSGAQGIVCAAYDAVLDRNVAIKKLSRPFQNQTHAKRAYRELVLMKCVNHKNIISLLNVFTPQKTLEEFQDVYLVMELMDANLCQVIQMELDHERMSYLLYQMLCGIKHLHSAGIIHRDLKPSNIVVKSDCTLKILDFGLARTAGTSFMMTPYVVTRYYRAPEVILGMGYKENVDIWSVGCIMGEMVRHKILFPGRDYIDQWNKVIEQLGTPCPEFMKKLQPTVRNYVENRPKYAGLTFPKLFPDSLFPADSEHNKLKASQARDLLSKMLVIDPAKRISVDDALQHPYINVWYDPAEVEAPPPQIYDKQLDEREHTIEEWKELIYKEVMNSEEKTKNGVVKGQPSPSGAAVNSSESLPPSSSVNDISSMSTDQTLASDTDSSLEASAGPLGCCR
Chain of EPH-A4 (P54764 20-986): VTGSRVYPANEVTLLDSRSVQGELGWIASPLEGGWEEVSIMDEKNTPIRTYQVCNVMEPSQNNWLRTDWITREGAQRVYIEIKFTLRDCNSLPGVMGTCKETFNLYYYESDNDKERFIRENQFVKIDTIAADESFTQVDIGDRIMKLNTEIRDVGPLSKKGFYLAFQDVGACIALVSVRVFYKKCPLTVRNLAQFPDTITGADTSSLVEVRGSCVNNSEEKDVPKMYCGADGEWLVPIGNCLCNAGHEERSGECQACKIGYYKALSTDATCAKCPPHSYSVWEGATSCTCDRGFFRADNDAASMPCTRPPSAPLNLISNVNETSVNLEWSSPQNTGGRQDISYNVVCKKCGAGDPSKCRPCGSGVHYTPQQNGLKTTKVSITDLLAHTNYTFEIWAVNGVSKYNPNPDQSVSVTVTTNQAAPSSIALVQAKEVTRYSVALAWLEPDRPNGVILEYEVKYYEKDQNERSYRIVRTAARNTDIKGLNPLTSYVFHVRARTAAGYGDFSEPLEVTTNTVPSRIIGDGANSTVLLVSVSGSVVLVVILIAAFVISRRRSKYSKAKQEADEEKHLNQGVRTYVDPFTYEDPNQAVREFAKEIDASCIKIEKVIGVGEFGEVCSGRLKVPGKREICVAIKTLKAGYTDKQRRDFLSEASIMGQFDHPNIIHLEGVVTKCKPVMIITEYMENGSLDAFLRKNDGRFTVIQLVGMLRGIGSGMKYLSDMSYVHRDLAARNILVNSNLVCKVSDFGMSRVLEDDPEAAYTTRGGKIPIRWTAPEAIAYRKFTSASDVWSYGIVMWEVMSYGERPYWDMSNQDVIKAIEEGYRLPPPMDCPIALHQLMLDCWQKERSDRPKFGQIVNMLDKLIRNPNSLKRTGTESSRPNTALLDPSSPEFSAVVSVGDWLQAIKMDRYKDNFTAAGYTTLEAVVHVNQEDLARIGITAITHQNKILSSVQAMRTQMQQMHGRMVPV
Chain of JNK2 (P45984 whole entry): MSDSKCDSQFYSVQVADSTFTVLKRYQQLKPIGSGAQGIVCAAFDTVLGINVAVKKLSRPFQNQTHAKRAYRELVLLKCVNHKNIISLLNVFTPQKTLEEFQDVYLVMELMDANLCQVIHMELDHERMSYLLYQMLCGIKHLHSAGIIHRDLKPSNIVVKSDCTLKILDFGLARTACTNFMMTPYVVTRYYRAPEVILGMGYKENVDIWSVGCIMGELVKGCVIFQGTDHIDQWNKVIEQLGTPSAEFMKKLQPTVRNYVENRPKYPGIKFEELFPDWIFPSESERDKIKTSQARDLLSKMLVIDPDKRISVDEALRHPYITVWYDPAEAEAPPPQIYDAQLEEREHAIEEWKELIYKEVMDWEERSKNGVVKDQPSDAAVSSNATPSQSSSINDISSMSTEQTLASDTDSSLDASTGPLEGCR
Chain of MARK1 (Q9P0L2 whole entry): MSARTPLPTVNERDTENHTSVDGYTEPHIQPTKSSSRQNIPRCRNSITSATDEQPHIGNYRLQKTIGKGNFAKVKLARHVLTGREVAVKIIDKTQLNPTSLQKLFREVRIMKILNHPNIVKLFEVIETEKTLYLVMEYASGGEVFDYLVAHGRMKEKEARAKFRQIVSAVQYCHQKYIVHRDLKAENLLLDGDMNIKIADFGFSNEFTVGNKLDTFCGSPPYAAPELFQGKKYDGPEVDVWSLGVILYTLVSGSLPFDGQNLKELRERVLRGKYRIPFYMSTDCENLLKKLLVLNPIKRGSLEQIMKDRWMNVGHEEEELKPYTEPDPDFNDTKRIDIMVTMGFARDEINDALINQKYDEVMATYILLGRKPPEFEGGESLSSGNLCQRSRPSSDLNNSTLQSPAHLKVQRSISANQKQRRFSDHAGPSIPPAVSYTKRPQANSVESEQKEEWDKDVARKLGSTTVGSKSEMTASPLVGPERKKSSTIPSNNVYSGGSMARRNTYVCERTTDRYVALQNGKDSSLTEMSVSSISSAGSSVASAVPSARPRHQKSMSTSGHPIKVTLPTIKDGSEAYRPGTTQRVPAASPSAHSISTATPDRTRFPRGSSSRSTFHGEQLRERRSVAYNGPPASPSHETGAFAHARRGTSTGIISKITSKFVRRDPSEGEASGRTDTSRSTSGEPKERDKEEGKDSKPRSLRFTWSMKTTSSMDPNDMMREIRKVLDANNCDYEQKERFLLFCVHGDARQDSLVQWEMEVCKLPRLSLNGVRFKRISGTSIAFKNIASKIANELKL

C=CS(=O)(=O)c1ccc(Nc2nc(OCC3CCCCC3)c3nc[nH]c3n2)cc1 [NU6300, 6-(cyclohexylmethoxy)-N-(4-(vinylsulfonyl)phenyl)-9H-purin-2-amine]
remaining activity at 1 µM (ABL): 56% | remaining activity at 1 µM (CHK2): 39% | remaining activity at 1 µM (CSK): 82% | %Remaining activity at 1µM NU6300 (AMPK): 47% | remaining activity at 1 µM (MELK): 55% | remaining activity at 1 µM (MARK1): 47% | remaining activity at 1 µM (HIPK3): 96% | remaining activity at 1 µM (LKB1): 59% | remaining activity at 1 µM (MARK4): 37% | remaining activity at 1 µM (JNK3): 37% | remaining activity at 1 µM (EPH-A4): 69% | remaining activity at 1 µM (IRR): 32% | remaining activity at 1 µM (JNK2): 88% | remaining activity at 1 µM (ERK2): 73% | remaining activity at 1 µM (MLK1): 8% | remaining activity at 1 µM (CK1δ): 83% | remaining activity at 1 µM (CAMK1): 89% | remaining activity at 1 µM (JNK1): 60% | remaining activity at 1 µM (EIF2AK3): 83% | remaining activity at 1 µM (MKK1): 58%

Source: paper PMC4579270, “Identification and Characterization of an Irreversible Inhibitor of CDK2” (Chemistry & Biology, 2015)
